Laboratory results from ChEMBL document CHEMBL4715897, “A new 1-nitro-9-aminoacridine derivative targeting yeast topoisomerase II able to overcome fluconazole-resistance” (2021).
≈ marks a conversion by molar mass, not a printed value. Calls of active or inactive are those of the source. The calls are words filed in the database; no cut-off is given here.

What was measured:
Saccharomyces cerevisiae [1] = assay: Fungicidal activity against Saccharomyces cerevisiae ATCC 9763; format: functional
[2] = Ratio of MFC for fungicidal activity against Saccharomyces cerevisiae ATCC 9763 to MIC for antifungal activity against Saccharomyces cerevisiae ATCC 9763; format: functional
Candida albicans [3] = assay: Fungicidal activity against Candida albicans ATCC 10231 assessed as bacterial killing at concentration of MIC after 5 hrs relative to control; format: functional
Candida albicans [4] = assay: Fungicidal activity against Candida albicans ATCC 10231; format: functional
Saccharomyces cerevisiae [5] = assay: Antifungal activity against Saccharomyces cerevisiae ATCC 9763 assessed as reduction in microbial growth; format: functional
Candida parapsilosis [6] = assay: Fungicidal activity against Candida parapsilosis DSM 5784; format: functional; conditions: Lodderomyces parapsilosis
Candida albicans [7] = assay: Fungicidal activity against Candida albicans ATCC 10231 assessed as bacterial killing at concentration of 4 MIC after 1 hrs relative to control; format: functional
Candida albicans [8] = assay: Fungicidal activity against Candida albicans ATCC 10231 assessed as bacterial killing at concentration of 2 MIC after 1 hrs relative to control; format: functional
Nakaseomyces glabratus [9] = assay: Antifungal activity against Candida glabrata ATCC 90030 assessed as reduction in microbial growth; format: functional
Pichia kudriavzevii [10] = assay: Antifungal activity against Candida krusei ATCC 6258 assessed as reduction in microbial growth; format: functional
Nakaseomyces glabratus [11] = assay: Fungicidal activity against Candida glabrata DSM 11226; format: functional
Candida albicans [12] = assay: Fungicidal activity against Candida albicans ATCC 10231 assessed as bacterial killing at concentration of 2 MIC after 5 hrs relative to control; format: functional
Candida parapsilosis [13] = assay: Antifungal activity against Candida parapsilosis ATCC 22019 assessed as reduction in microbial growth; format: functional; conditions: Lodderomyces parapsilosis
Candida albicans [14] = assay: Antifungal activity against Candida albicans ATCC 10231 assessed as reduction in microbial growth; format: functional
Candida albicans [15] = assay: Fungicidal activity against Candida albicans ATCC 10231 assessed as bacterial killing at concentration of 0.25 MIC after 5 hrs relative to control; format: functional
Pichia kudriavzevii [16] = assay: Fungicidal activity against Candida krusei DSM 6128; format: functional
Candida albicans [17] = assay: Antibiofilm activity against Candida albicans ATCC 10231 at concentration of 0.25 MIC by XTT assay; format: functional, organism-based
Candida albicans [18] = assay: Growth inhibition of Candida albicans ATCC 10231 assessed as reduction in yeast to mycelium formation by measuring reduction in hyphal growth at 0.25 MIC after 3 hrs by light microscopic method relative to control; format: functional
Candida albicans [19] = assay: Antibiofilm activity against Candida albicans at 256 ug/ml relative to control; format: functional
Trichophyton rubrum = assay: Antifungal activity against Trichophyton rubrum assessed as reduction in microbial growth after 48 hrs by microdilution method; format: functional

C[C@@H]1[C@H](O)[C@@H](C)/C=C/C=C/C=C/C=C/C=C/C=C/C=C/[C@H](O[C@@H]2O[C@H](C)[C@@H](O)[C@H](N)[C@@H]2O)C[C@@H]2O[C@](O)(C[C@@H](O)C[C@@H](O)[C@H](O)CC[C@@H](O)C[C@@H](O)CC(=O)O[C@H]1C)C[C@H](O)[C@H]2C(=O)O [AMPHOTERICIN B]
MFC (Saccharomyces cerevisiae [1]): 2 µg/mL (≈ 2.16 µM) | Ratio [2]: >=1 | Activity (Candida albicans [3]): 100% | MFC (Candida albicans [4]): 2 µg/mL (≈ 2.16 µM) | MIC90 (Saccharomyces cerevisiae [5]): 0.5 µg/mL | MFC (Candida parapsilosis [6]): 2 µg/mL (≈ 2.16 µM) | Activity (Candida albicans [7]): 100% | Activity (Candida albicans [8]): 100% | MIC90 (Nakaseomyces glabratus [9]): 1 µg/mL | MIC90 (Pichia kudriavzevii [10]): 1 µg/mL | MFC (Nakaseomyces glabratus [11]): 2 µg/mL (≈ 2.16 µM) | Activity (Candida albicans [12]): 100% | MIC90 (Candida parapsilosis [13]): 1 µg/mL | MIC90 (Candida albicans [14]): 0.5 µg/mL | Activity (Candida albicans [15]): 70% | MFC (Pichia kudriavzevii [16]): 2 µg/mL (≈ 2.16 µM) | Activity (Candida albicans [17]): Active | growth inhibition (GI) (Candida albicans [18]): 100%

CCN(CC)CCCC(C)Nc1c2ccc(Cl)cc2nc2ccc(OC)cc12 (stereo not given) [QUINACRINE]
Activity (Candida albicans [19]): 50%

O=c1c2cc(O)c(O)c(O)c2[nH]c2cc(O)cc(O)c12
MIC (Trichophyton rubrum): 15.6 µg/mL
